Reference: patent EP2100894A1, “Pyridopyrimidines used as Plk1 (polo-like kinase) inhibitors” (4SC AG, priority 2008, dated 2009)

Target: T1, PIk1 (Homo sapiens, UniProt P53350)
T1 construct: His tag (histidine tag) (N); made in house; host or cells: SF9 insect cells
Test: PIk1 kinase activity inhibition assay (33P incorporation into alpha casein, flash plates)
Format: biochemical
Settings: recombinant N-terminally histidine-tagged PIk1, alpha casein as substrate, 100 nM Li-ATP, 80 minutes at 30°C
Procedure: The inhibition of PIk1 kinase activity can be measured using recombinant PIk1 protein expressed as an N-terminally histidine-tagged protein in SF9 insect cells and alpha casein as substrate. The PIk1 assay is run in 96 well plates by incubating 50 to 100 ng per well recombinant PIk1, 500 ng per well alpha casein (Sigma, # C-6780) as substrate, 10 µl of compound of invention (test compounds were dissolved as 20 mM solutions in dimethylsulfoxide (DMSO) and subsequently diluted), and 100 nM Li-ATP (including ^33P-ATP) in 100 µl of reaction buffer ([…], pH 7.5; 3 mM MgCl2; 3 mM MnCl2; 3 µM Na-Orthovanadat; 1 mM DTT; 1 µg/ml PEG 8000) for 80 minutes at 30°C. The reactions are terminated by adding 100 µl stopping buffer (2% H3PO4 for 5 minutes) and are washed 3 times with washing solution (0,9% NaCl). Determining ^33P incorporated into the protein substrate alpha casein, the detection is based on the adhesion of the phosphorylated protein to the surface of scintillator-coated flash plates (Perkin Elmer, USA; # SMP-200). Phosphorylation of alpha casein is measured by counting the radioactivity bound to the plate for 60 sec. using a plate reader (Perkin Elmer, USA; Wallac Microbeta). By this method, the IC50 value of the PIk1 inhibition is determined as described above. […]

T1 sequence (P53350 whole entry): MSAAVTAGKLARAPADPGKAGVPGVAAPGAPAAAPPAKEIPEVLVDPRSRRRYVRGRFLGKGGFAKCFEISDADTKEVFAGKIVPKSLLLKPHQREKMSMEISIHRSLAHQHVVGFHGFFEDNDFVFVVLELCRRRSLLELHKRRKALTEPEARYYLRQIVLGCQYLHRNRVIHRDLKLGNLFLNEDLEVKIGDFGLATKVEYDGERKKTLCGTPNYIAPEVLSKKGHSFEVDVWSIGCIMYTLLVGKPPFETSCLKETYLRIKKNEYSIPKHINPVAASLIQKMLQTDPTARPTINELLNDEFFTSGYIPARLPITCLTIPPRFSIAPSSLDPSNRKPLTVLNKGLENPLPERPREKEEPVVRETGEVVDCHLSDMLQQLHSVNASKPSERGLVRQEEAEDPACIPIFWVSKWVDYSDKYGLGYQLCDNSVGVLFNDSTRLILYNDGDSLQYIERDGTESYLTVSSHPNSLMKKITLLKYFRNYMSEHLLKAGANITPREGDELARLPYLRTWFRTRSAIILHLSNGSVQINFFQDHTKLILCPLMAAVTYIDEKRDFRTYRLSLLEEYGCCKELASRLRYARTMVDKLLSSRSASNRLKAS

| IC50 [nM] | SMILES |
| --- | --- |
| < 100 | C/C=C/c1c(OCC2CC2)c(=O)n(C)c2cnc(Nc3ccc(C(=O)NC4CCN(C)CC4)cc3OC)nc12 [Example 27, 4-({7-(cyclopropylmethoxy)-5-methyl-6-oxo-8-[(1E)-prop-1-en-1-yl]-5,6-dihydropyrido[3,2-d]pyrimidin-2-yl}amino)-3-methoxy-N-(1-methylpiperidin-4-yl)benzamide] |
| < 1000 | C/C=C/c1c(OC)c(=O)n(C)c2cnc(Nc3ccc(C(=O)Nc4cccnc4)cc3OC)nc12 [Example 28, 3-methoxy-4-({7-methoxy-5-methyl-6-oxo-8-[(1E)-prop-1-en-1-yl]-5,6-dihydropyrido[3,2-d]pyrimidin-2-yl}amino)-N-pyridin-3-ylbenzamide] |
| < 100 | C/C=C/c1c(OC)c(=O)n(C)c2cnc(Nc3ccc(C(=O)N[C@@H](C)Cc4c[nH]cn4)cc3OC)nc12 [Example 29, N-[(1S)-2-(1H-imidazol-4-yl)-1-methylethyl]-3-methoxy-4-({7-methoxy-5-methyl-6-oxo-8-[(1E)-prop-1-en-1-yl]-5,6-dihydropyrido[3,2-d]pyrimidin-2-yl}amino)benzamide] |
| < 100 | COc1cc(C(=O)NC2CCN(C)CC2)ccc1Nc1ncc2c(n1)c(-c1ccsc1)c(OC(C)C)c(=O)n2C [Example 31, 4-{[7-isopropoxy-5-methyl-6-oxo-8-(3-thienyl)-5,6-dihydropyrido[3,2-d]pyrimidin-2-yl]amino}-3-methoxy-N-(1-methylpiperidin-4-yl)benzamide] |
| < 100 | COc1cc(C(=O)NC2CCN(C)CC2)ccc1Nc1ncc2c(n1)c(-c1ccsc1)c(OCC1CC1)c(=O)n2C [Example 32, 4-{[7-(cyclopropylmethoxy)-5-methyl-6-oxo-8-(3-thienyl)-5,6-dihydro-pyrido[3,2-d]pyrimidin-2-yl]amino}-3-methoxy-N-(1-methylpiperidin-4-yl)benzamide] |
| < 1000 | COc1cc(C(=O)NC2CCN(C)CC2)ccc1Nc1ncc2c(n1)c(-c1cscc1C)c(OC)c(=O)n2C [Example 33, 3-methoxy-4-{[7-methoxy-5-methyl-8-(4-methyl-3-thienyl)-6-oxo-5,6-dihydropyrido[3,2-d]pyrimidin-2-yl]amino}-N-(1-methylpiperidin-4-yl)benzamide] |
| < 1000 | COc1cc(C(=O)NC2CCN(C)CC2)ccc1Nc1ncc2c(n1)c(-c1cncnc1)c(OC)c(=O)n2C [Example 34, 3-methoxy-4-[(7-methoxy-5-methyl-6-oxo-8-pyrimidin-5-yl-5,6-dihydro-pyrido[3,2-d]pyrimidin-2-yl)amino]-N-(1-methylpiperidin-4-yl)benzamide] |
| < 1000 | COc1cc(C(=O)NC2CCN(C)CC2)ccc1Nc1ncc2c(n1)c(-c1cnn(C)c1)c(OC)c(=O)n2C [Example 35, 3-methoxy-4-{[7-methoxy-5-methyl-8-(1-methyl-1H-pyrazol-4-yl)-6-oxo-5,6-dihydropyrido[3,2-d]pyrimidin-2-yl]amino}-N-(1-methylpiperidin-4-yl)benzamide] |
| < 100 | CCOc1c(C2CC2)c2nc(Nc3ccc(C(=O)NC4CCN(C)CC4)cc3OC)ncc2n(C)c1=O [Example 37, 4-[(8-cyclopropyl-7-ethoxy-5-methyl-6-oxo-5,6-dihydropyrido[3,2-d]pyrimidin-2-yl)amino]-3-methoxy-N-(1-methylpiperidin-4-yl)benzamide] |
| < 10 | COc1cc(C(=O)NC2CCN(C)CC2)ccc1Nc1ncc2c(n1)c(C1CC1)c(OCC1CC1)c(=O)n2C [Example 38, 4-{[8-cyclopropyl-7-(cyclopropylmethoxy)-5-methyl-6-oxo-5,6-dihydro-pyrido[3,2-d]pyrimidin-2-yl]amino}-3-methoxy-N-(1-methylpiperidin-4-yl)benzamide] |
| < 10 | COc1cc(C(=O)NC2CCN(C)CC2)ccc1Nc1ncc2c(n1)c(-c1ccoc1)c(OCC1CC1)c(=O)n2C [Example 39, 4-{[7-(cyclopropylmethoxy)-8-(3-furyl)-5-methyl-6-oxo-5,6-dihydro-pyrido[3,2-d]pyrimidin-2-yl]amino}-3-methoxy-N-(1-methylpiperidin-4-yl)benzamide] |
| < 100 | C/C=C/c1c(OCC2CCCC2)c(=O)n(C)c2cnc(Nc3ccc(C(=O)NC4CCN(C)CC4)cc3OC)nc12 [Example 42, 4-({7-(cyclopentylmethoxy)-5-methyl-6-oxo-8-[(1E)-prop-1-en-1-yl]-5,6-dihydropyrido[3,2-d]pyrimidin-2-yl}amino)-3-methoxy-N-(1-methylpiperidin-4-yl)benzamide] |
| < 10 | C/C=C/c1c(OC2CCC2)c(=O)n(C)c2cnc(Nc3ccc(C(=O)NC4CCN(C)CC4)cc3OC)nc12 [Example 43, 4-({7-(cyclobutyloxy)-5-methyl-6-oxo-8-[(1E)-prop-1-en-1-yl]-5,6-dihydropyrido[3,2-d]pyrimidin-2-yl}amino)-3-methoxy-N-(1-methylpiperidin-4-yl)benzamide] |
| < 100 | CCOc1c(-c2ncco2)c2nc(Nc3ccc(C(=O)NC4CCN(C)CC4)cc3OC)ncc2n(C)c1=O [Example 44, 4-{[7-ethoxy-5-methyl-8-(1,3-oxazol-2-yl)-6-oxo-5,6-dihydropyrido[3,2-d]pyrimidin-2-yl]amino}-3-methoxy-N-(1-methylpiperidin-4-yl)benzamide] |
| < 100 | C/C=C/c1c(OC(C)C2CC2)c(=O)n(C)c2cnc(Nc3ccc(C(=O)NC4CCN(C)CC4)cc3OC)nc12 (stereo not shown) [Example 45, 4-({7-(1-cyclopropylethoxy)-5-methyl-6-oxo-8-[(1E)-prop-1-en-1-yl]-5,6-dihydropyrido[3,2-d]pyrimidin-2-yl}amino)-3-methoxy-N-(1-methylpiperidin-4-yl)benzamide] |
| < 10 | COc1cc(C(=O)NCCC2CCCN2C)ccc1Nc1ncc2c(n1)c(-c1ccsc1)c(OCC1CC1)c(=O)n2C (stereo not shown) [Example 47, 4-{[7-(cyclopropylmethoxy)-5-methyl-6-oxo-8-(3-thienyl)-5,6-dihydropyrido[3,2-d]pyrimidin-2-yl]amino}-3-methoxy-N-[2-(1-methylpyrrolidin-2-yl)ethyl]benzamide] |
| < 10 | COc1cc(C(=O)NC2CCN(C(C)C)CC2)ccc1Nc1ncc2c(n1)c(-c1ccsc1)c(OCC1CC1)c(=O)n2C [Example 49, 4-{[7-(cyclopropylmethoxy)-5-methyl-6-oxo-8-(3-thienyl)-5,6-dihydropyrido[3,2-d]pyrimidin-2-yl]amino}-N-(1-isopropylpiperidin-4-yl)-3-methoxybenzamide] |
| < 100 | CCOc1c(-c2nccs2)c2nc(Nc3ccc(C(=O)NC4CCN(C)CC4)cc3OC)ncc2n(C)c1=O [Example 50, 4-{[7-ethoxy-5-methyl-6-oxo-8-(1,3-thiazol-2-yl)-5,6-dihydropyrido[3,2-d]pyrimidin-2-yl]amino}-3-methoxy-N-(1-methylpiperidin-4-yl)benzamide] |
| < 10 | COc1cc(C(=O)NC2CCN(C)CC2)ccc1Nc1ncc2c(n1)c(-c1ccccc1)c(OCC1CC1)c(=O)n2C [Example 51, 4-{[7-(cyclopropylmethoxy)-5-methyl-6-oxo-8-phenyl-5,6-dihydro-pyrido[3,2-d]pyrimidin-2-yl]amino}-3-methoxy-N-(1-methylpiperidin-4-yl)benzamide] |

| SMILES | IC50 [nM] |
| --- | --- |
| CCOc1c(-c2ccsc2)c2nc(Nc3ccc(C(=O)NC4CCN(C)CC4)cc3OC)ncc2n(C)c1=O [Example 30, 4-{[7-ethoxy-5-methyl-6-oxo-8-(3-thienyl)-5,6-dihydropyrido[3,2-d]pyri-midin-2-yl]amino}-3-methoxy-N-(1-methylpiperidin-4-yl)benzamide] | < 10 |
| CCC(C)Oc1c(-c2ccsc2)c2nc(Nc3ccc(C(=O)NC4CCN(C)CC4)cc3OC)ncc2n(C)c1=O (stereo not shown) [Example 36, 4-{[7-sec-butoxy-5-methyl-6-oxo-8-(3-thienyl)-5,6-dihydropyrido[3,2-d]pyrimidin-2-yl]amino}-3-methoxy-N-(1-methylpiperidin-4-yl)benzamide] | < 100 |
| C/C=C/c1c(OC(C)CC)c(=O)n(C)c2cnc(Nc3ccc(C(=O)NC4CCN(C)CC4)cc3OC)nc12 (stereo not shown) [Example 40, 4-({7-sec-butoxy-5-methyl-6-oxo-8-[(1E)-prop-1-en-1-yl]-5,6-dihydro-pyrido[3,2-d]pyrimidin-2-yl}amino)-3-methoxy-N-(1-methylpiperidin-4-yl)benzamide] | < 100 |
| C/C=C/c1c(OCC(C)C)c(=O)n(C)c2cnc(Nc3ccc(C(=O)NC4CCN(C)CC4)cc3OC)nc12 [Example 41, 4-({7-isobutoxy-5-methyl-6-oxo-8-[(1E)-prop-1-en-1-yl]-5,6-dihydro-pyrido[3,2-d]pyrimidin-2-yl}amino)-3-methoxy-N-(1-methylpiperidin-4-yl)benzamide] | < 10 |
| C#Cc1c(OC)c(=O)n(C)c2cnc(Nc3ccc(C(=O)NC4CCN(C)CC4)cc3OC)nc12 [Example 46, 4-[(8-ethynyl-7-methoxy-5-methyl-6-oxo-5,6-dihydropyrido[3,2-d]pyri-midin-2-yl)amino]-3-methoxy-N-(1-methylpiperidin-4-yl)benzamide] | < 100 |
| COc1cc(C(=O)NCC2CCN(C)CC2)ccc1Nc1ncc2c(n1)c(-c1ccsc1)c(OCC1CC1)c(=O)n2C [Example 48, 4-{[7-(cyclopropylmethoxy)-5-methyl-6-oxo-8-(3-thienyl)-5,6-dihydro-pyrido[3,2-d]pyrimidin-2-yl]amino}-3-methoxy-N-[(1-methylpiperidin-4-yl)methyl] benzamide] | < 10 |
